{
  "source": "patent US20060127459A1",
  "about": "“Urogenital infection inhibition” (priority 2004, published 2006)",
  "origin": "cited, not measured here",
  "test_system": "pathogen adherence to epithelium cells",
  "details": "positive control, shown in U.S. patent application Ser. No. 10/401,522",
  "data": [
    {"substance": "Hyaluronic acid (HLA) potassium salt", "values": [
      {"measurement": "pathogen adherence to epithelium cells", "value": "inhibit pathogen adherence"}
    ]}
  ]
}
